The results in this text go back to US20260224678A1, “EXPEDITED NEOANTIGEN VACCINES” (priority 2023, published 2026).

In the assay the test system is T cells. Kind of assay: Elispot response after vaccination with neoepitope peptides. The note with it: subject with R132H mutation of IDH1 vaccinated multiple times with two 9 mer peptides and a 15 mer peptide carrying the motifs. The class given is cell-based, human. The source says:
As noted above, T cell exposed motif frequency is also a criterion for selection of vaccinal peptides from mutated passenger gene products. Table 10—(also replicated as FIG. 5) provides an example for a particular individual cancer-affected subject showing the selection of the most advantageous peptides based on frequency of occurrence in reference databases of pentamer counts and the subject's HLA alleles. When the pentamers in tumor specific T cell exposed motifs that expose a mutated amino acid are absent or low frequency in the human proteome, particular attention is paid to the frequency count in databases of exogenous proteins. In the table we show application of the representative gastrointestinal microbiome dataset. Application of this database should not be considered limiting and other reference sets likely to be indicative of prior epitope exposure may be applied. In this example the top two passenger mutations (in genes ARHGAP5 and ATIC) have T cell exposed motifs which are common. However, the lower two mutations (in CDC42 and CHD6) are poorly represented in the human and gastrointestinal microbiome reference datasets. Selected peptides for these two mutated proteins (margins boxed in FIG. 5) that best fulfil the criteria of frequency and also binding to this subject's known HLA alleles include SEQ ID NO.:s. 1891, 1897, 1898, 1914, 1915, 1916, 1921. In another embodiment a subject affected with a R132H mutation of IDH1 was vaccinated multiple times with two 9 mer peptides both exposing the mutant histidine. One peptide carried T cell exposed motif ~~~IGHHA~ (SEQ ID NO.: 1924) and the other carrying ~~~GHHAY~ SEQ ID NO.: 1925 and a 15 mer peptide comprising KP~I~GH SEQ ID NO.: 1927. A positive Elispot response was detected to SEQ ID NO.: 1924 and 1927 but not SEQ ID NO.: 1925.
Methods of expansion of T cells and sequencing of the T cell receptors (TCR) therein are known to the art. […]
Consider 1924 (IGHHA) [compound 1924], for which the Elispot entry is listed as “positive”.
The same measure for 1925 (GHHAY) [compound 1925]: “negative”; for 1927 (KPIGH) [compound 1927]: “positive”.
